Assay results taken from ChEMBL document CHEMBL1201862, “PubChem BioAssay data set” (2004).
Values belong to the compound of their own block, whether it stands above or below them. The source made the active and inactive calls.

Assays:
Coagulation factor XII = target: T1, Coagulation factor XII (Homo sapiens, UniProt P00748); type: functional;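 also: activated factor XIIa alpha cleaving a fluorogenic AMC peptide substrate; inhibitor potency from loss of enzyme activity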
T1 sequence (P00748 whole entry): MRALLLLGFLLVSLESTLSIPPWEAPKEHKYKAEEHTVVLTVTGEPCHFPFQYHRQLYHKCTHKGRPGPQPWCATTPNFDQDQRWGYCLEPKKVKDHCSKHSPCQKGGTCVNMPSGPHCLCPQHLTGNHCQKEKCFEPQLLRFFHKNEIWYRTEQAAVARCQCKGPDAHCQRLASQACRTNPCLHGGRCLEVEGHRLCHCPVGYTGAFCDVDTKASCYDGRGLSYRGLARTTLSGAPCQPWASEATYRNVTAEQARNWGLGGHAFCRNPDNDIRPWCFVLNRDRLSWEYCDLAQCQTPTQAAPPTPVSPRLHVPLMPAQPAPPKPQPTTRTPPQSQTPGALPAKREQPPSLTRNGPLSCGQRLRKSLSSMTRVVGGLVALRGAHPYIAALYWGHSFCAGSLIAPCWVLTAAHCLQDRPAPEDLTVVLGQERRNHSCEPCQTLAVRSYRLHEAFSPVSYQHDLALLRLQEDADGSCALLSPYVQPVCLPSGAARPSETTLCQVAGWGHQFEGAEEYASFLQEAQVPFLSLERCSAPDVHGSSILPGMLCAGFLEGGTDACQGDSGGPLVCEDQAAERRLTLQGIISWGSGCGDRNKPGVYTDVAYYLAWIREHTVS

[1] = target: T2, Tyrosine-protein phosphatase non-receptor type 22 (Homo sapiens, UniProt Q9Y2R2); type: functional
T2 sequence (Q9Y2R2 whole entry): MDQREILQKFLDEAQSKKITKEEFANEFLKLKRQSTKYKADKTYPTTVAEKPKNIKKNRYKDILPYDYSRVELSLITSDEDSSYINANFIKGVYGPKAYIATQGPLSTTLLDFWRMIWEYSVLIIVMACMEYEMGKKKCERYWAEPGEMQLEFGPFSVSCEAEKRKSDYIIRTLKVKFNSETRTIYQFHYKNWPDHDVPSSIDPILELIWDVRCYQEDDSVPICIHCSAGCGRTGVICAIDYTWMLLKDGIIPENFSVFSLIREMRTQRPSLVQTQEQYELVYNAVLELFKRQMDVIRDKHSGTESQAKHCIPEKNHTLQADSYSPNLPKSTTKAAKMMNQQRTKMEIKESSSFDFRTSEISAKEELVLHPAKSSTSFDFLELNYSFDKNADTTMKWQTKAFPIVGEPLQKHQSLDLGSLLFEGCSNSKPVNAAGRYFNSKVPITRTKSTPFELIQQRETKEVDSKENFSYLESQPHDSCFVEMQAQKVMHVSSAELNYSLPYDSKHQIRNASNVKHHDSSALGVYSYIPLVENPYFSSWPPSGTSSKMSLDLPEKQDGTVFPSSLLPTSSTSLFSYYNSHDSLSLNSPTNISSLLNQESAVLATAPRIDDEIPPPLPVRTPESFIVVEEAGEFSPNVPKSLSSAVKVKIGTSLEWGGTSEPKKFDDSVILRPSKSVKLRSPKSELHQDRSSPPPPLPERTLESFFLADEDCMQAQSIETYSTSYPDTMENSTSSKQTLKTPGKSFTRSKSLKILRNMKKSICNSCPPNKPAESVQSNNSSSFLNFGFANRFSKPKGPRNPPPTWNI

[2] = target: T2, Tyrosine-protein phosphatase non-receptor type 22; type: functional; remark: listed apart in the source
[3] = target: T3, Tyrosine-protein phosphatase non-receptor type 7 (Homo sapiens, UniProt P35236); type: functional
T3 sequence (P35236 whole entry): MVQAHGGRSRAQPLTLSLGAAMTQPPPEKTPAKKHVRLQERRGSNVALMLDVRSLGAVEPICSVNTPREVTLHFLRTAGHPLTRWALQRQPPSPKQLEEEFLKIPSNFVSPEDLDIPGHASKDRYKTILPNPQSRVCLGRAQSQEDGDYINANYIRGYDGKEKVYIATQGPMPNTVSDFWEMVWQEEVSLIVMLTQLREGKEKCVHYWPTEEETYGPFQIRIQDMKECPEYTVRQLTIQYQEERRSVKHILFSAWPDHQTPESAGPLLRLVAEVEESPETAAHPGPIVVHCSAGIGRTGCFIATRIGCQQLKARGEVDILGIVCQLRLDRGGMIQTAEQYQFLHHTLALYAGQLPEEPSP

X-box-binding protein 1 = X-box-binding protein 1 (Homo sapiens, UniProt P17861); type: functional, Cricetulus griseus;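 also: confirmatory dose-response counter-screen serving a CHOP assay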
[4] = target: Heat shock protein HSP 90-alpha (Homo sapiens, UniProt P07900); type: functional, organism-based
[5] = target: G-protein coupled receptor 55 (Homo sapiens, UniProt Q9Y2T6); experiment: GPR55 antagonists blocking LPI-driven arrestin recruitment, primary screen, imaging, U2OS, beta-arrestin-GFP, LPI agonist (AID 2013); type: functional;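 also: antagonist potency measured as reduced agonist-driven arrestin aggregation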
[6] = inhibition of K1F phage lysis, E. coli UTI89, bacterial capsule biogenesis inhibitors, alamar blue (AID 488966); type: functional
[7] = target: Induced myeloid leukemia cell differentiation protein Mcl-1 (Homo sapiens, UniProt Q07820); type: functional
Sequence of Induced myeloid leukemia cell differentiation protein Mcl-1 (Q07820 whole entry): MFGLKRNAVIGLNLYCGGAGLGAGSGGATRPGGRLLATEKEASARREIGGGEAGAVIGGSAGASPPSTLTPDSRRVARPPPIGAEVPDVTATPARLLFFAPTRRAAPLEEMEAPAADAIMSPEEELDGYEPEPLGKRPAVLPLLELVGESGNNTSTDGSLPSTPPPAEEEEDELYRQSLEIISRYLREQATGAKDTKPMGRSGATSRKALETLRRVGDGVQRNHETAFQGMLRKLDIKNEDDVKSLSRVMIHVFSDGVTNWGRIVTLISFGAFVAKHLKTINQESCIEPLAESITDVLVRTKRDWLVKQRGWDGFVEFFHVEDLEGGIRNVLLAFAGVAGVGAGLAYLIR

Sequence of X-box-binding protein 1 (P17861 whole entry): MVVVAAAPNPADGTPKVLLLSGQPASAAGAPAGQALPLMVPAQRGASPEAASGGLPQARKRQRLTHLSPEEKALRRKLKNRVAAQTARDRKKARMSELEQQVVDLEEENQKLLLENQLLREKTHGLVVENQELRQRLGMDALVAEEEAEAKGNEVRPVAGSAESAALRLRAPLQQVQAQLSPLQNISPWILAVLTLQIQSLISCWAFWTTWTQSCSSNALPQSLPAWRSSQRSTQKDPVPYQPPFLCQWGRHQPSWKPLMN
Sequence of G-protein coupled receptor 55 (Q9Y2T6 whole entry): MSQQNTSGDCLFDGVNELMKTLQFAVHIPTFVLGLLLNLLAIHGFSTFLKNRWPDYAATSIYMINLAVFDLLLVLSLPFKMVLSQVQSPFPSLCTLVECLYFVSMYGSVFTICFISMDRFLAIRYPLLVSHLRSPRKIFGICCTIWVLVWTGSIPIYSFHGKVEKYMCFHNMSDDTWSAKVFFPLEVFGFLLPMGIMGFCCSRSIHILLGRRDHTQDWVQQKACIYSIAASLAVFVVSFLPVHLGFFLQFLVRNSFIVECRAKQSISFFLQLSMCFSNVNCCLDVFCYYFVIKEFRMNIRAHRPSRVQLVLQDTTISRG

Compound: CCOC(=O)CNC(=O)Cn1cnc2c(nnn2-c2cccc(Cl)c2)c1=O
IC50 (Coagulation factor XII): > 50 µM (inactive)

Compound: COc1ccc2c(-c3ccccc3)cc(N3CCOCC3)nc2c1
IC50 [1]: > 79.4 µM (inactive)
IC50 [2]: > 79.4 µM (inactive)
IC50 [3]: > 79.4 µM (inactive)

Compound: Cc1ccc(C(=O)Oc2ccc(/C=C3\C(=N)N4N=C(N5CCOCC5)SC4=NC3=O)cc2)cc1
IC50 [6]: > 75 µM (active)

Compound: CCc1ccc2nc3sc(C(=O)Nc4nnc(CC)s4)c(N)c3cc2c1
IC50 [7]: 4.39 µM (not active)
IC50 [6]: > 150 µM (active)

The next lines start with the values.

IC50 (Coagulation factor XII): > 50 µM (inactive)
Compound: CNC(=O)COC(=O)c1cc(-c2ccco2)nc2ccccc12

Absolute IC50 (XBP1) (X-box-binding protein 1): 10 µM
Compound: Cc1ccc(NC(=O)C(=O)NCC2OCCc3ccccc32)cc1 (stereo unspecified)

AC50 [4]: 1.05 µM (active)
IC50 [5]: 0.696 µM (active)
Compound: CC(C)(C)C(=O)C(Cl)C(=O)Nc1ccccc1 (stereo unspecified)
